Experiments:
PC-12 cells = experiment: 14C-choline incorporation into phospholipids in PC-12 cells; type: cell-based
Experimental: PC-12 cells were maintained in Dulbecco's modified Eagle's medium (DMEM)+10% fetal bovine serum (FBS). For experiments, cells were grown in quintuplicate collagen-coated 35 millimeter (mm) dishes. Cells were incubated for 18 hours (hr) in serum-free DMEM containing 28 μM choline+/−5 micromolar (μM) of DHA, oleic acid, or palmitic acid. Cells were then labeled for 2.5 hr with 0.5 microcurie (μCi)/ml ^14C-choline in serum-free DMEM containing 10-micromolar (μM) choline.
Cells were homogenized in 100 volumes of ice-cold deionized water using a tissue degrader (Polytron PT 10-35, Kinematica AG, Switzerland); 1 ml of aliquots were then mixed with 3 ml of chloroform+methanol mixture (2:1 v/v) and vortexed vigorously for 30 seconds. After cooling for 1 h on ice, the mixture was mixed sequentially with 3 ml of chloroform+methanol mixture (2:1 v/v) and 1 ml of ice-cold deionized water. The mixture was vortexed vigorously and allowed to stand overnight in the cold room (18 h). The organic (lower) and aqueous (upper) phases of the mixtures were separated by centrifugation (10 min at 4° C.; 1000 g). An aliquot (2 ml) of the upper phase was used for determination of CDP-Choline (see below), and 0.1-0.4 ml aliquots of the lower phase were dried under vacuum for phospholipid analysis. Residues of 0.1 ml aliquots of the lower phase were assayed for total phospholipid content by measuring phosphorus. Residues of 0.4 ml aliquots of the lower phase were reconstituted in 40 μl methanol and subjected to thin-layer chromatography using silica G plates (Adsorbosil Plus-1®, Alltech), and a system consisting of chloroform/ethanol/triethylamine/water (30:34:30:8) as the mobile phase. Phospholipid standards were used to identify the corresponding bands under UV light after the plates were sprayed with 0.1% diphenylhexatriene in petroleum ether. Bands for individual phospholipid classes (PC, PE, SM, PS and PI) were scraped off the plates and extracted into 1 ml of methanol; dried under vacuum; and assayed for phosphorus content. Total phosphorus was determined by comparison with standard curves by using KH2PO4 run with each assay. […] Absorbance was measured spectrophotometrically at 820 nm. Phospholipid mass was determined by multiplying the phosphorus content by 25.
In order to assess the effect of omega-3 fatty acids on phospholipid synthesis, PC-12 cells were incubated with ^14C-labeled choline, following an 18-hour pre-incubation with or without DHA. Incorporation of label into phospholipids was then measured. […]
To further characterize the stimulation of phospholipid synthesis by omega-3 fatty acids, PC-12 cells were pre-treated with different doses of DHA and exposed to labeled choline as described in Example 1, then incorporation of ^14C-label into phospholipids was measured. […]

Rat hippocampal cells = experiment: 14C-choline incorporation into PC in cultured hippocampal neurons; type: cell-based; conditions: DHA+choline pre-treatment; 14C-choline 2 h; FIG. 10
Experimental: Rat hippocampal cells were cultured for 3 weeks in Neutrobasal plus B27 medium, to reach full maturation. On the day of the experiment, cells were incubated with DMEM+choline, with or without added DHA. ^14C-choline was added, cells were incubated for an additional 2 h, and newly-formed ^14C-labeled PC was extracted and measured as described in Example 1.
To determine the effect of DHA on phospholipids in neurons in short-term culture, neurons were pre-treated with DHA+choline. […] These findings confirm that DHA increases phospholipid levels in brain and neural cells.

[1] = system: brain phospholipid levels; experiment: Brain phospholipid levels in gerbils given UMP diet and/or PUFA by gavage; type: in vivo, gerbil
Experimental: Cells were homogenized in 100 volumes of ice-cold deionized water using a tissue degrader (Polytron PT 10-35, Kinematica AG, Switzerland); 1 ml of aliquots were then mixed with 3 ml of chloroform+methanol mixture (2:1 v/v) and vortexed vigorously for 30 seconds. After cooling for 1 h on ice, the mixture was mixed sequentially with 3 ml of chloroform+methanol mixture (2:1 v/v) and 1 ml of ice-cold deionized water. The mixture was vortexed vigorously and allowed to stand overnight in the cold room (18 h). The organic (lower) and aqueous (upper) phases of the mixtures were separated by centrifugation (10 min at 4° C.; 1000 g). An aliquot (2 ml) of the upper phase was used for determination of CDP-Choline (see below), and 0.1-0.4 ml aliquots of the lower phase were dried under vacuum for phospholipid analysis. Residues of 0.1 ml aliquots of the lower phase were assayed for total phospholipid content by measuring phosphorus. Residues of 0.4 ml aliquots of the lower phase were reconstituted in 40 μl methanol and subjected to thin-layer chromatography using silica G plates (Adsorbosil Plus-1®, Alltech), and a system consisting of chloroform/ethanol/triethylamine/water (30:34:30:8) as the mobile phase. Phospholipid standards were used to identify the corresponding bands under UV light after the plates were sprayed with 0.1% diphenylhexatriene in petroleum ether. Bands for individual phospholipid classes (PC, PE, SM, PS and PI) were scraped off the plates and extracted into 1 ml of methanol; dried under vacuum; and assayed for phosphorus content. Total phosphorus was determined by comparison with standard curves by using KH2PO4 run with each assay. To each sample was added 0.5 ml of 4.5% HclO4/27% H2SO4 and tubes were heated at 180° C. for 3 h. After cooling to room temperature, 5 ml of the color reagent (a 10:1 dilution of solutions containing 2.5 mg/ml ammonium molybdate, 8.2 mg/ml sodium acetate and 100 mg/ml ascorbic acid respectively) was added and the tubes were incubated for 2 h, 37° C. Absorbance was measured spectrophotometrically at 820 nm. Phospholipid mass was determined by multiplying the phosphorus content by 25.
Control standard diet (Table 4) consisted of Teklad Global 16% protein rodent diet (Harlan Teklad, Madison, Wis.), which contained 0.1% choline chloride (CC), corresponding to a daily dose of 50 mg/kg/day. UMP was provided as 0.5% UMP·2Na^+ weight/weight, added to the control diet, also prepared by Harlan Teklad, corresponding to 240 mg/kg/day UMP. DHA was administered as 300 mg/kg/day in 200 microliter (mcL)/day 5% Arabic Gum solution, while groups not receiving DHA were administered vehicle (5% Arabic Gum) alone. DHA was provided by Nu-Chek Prep (Elysian, Minn.) and UMP by Numico (Wagenigen, NL).
Gerbils were anesthetized with ketamine and xylazine (80 and 10 mg/kg bwt, i.p.) and sacrificed by immersing the head into liquid nitrogen for 2 min, followed by decapitation. Brains were immediately and quickly (30 seconds) removed using a bone rongeur and stored at −80° C.
Frozen brain hemispheres were weighed and homogenized in 100 volumes of ice-cold deionized water using a tissue degrader (Polytron PT 10-35, Kinematica AG, Switzerland), then analyzed as described in Example 1.
Protein in whole brain homogenate sample was measured for using bicinchoninic acid reagent (Perkin Elmer, Norwalk, Conn., USA). DNA was measured by measuring 460 nm emission of samples on a fluorometer in the presence of bisbenzimidizole, a fluorescent dye known as Hoechst H 33258 (American Hoechst Corporation), which has an excitation maximum at 356 nm and an emission maximum of 458 when bound to DNA.
Male gerbils weighing 80-100 g were divided into 4 groups of 8 gerbils and administered the supplements depicted in Table 1: […]

CCC=CCC=CCC=CCC=CCC=CCC=CCCC(=O)O [DHA, 4,7,10,13,16,19-docosahexaenoic acid]
Phosphatidylcholine (PC) synthesis significantly increased (incorporation of 14C label into PC) (PC-12 cells; 5 μM fatty acid, 18 hr pre-incubation, then 14C-choline 2.5 hr, FIG. 1): significantly increased
Augmentation of phospholipid synthesis (PC-12 cells; different doses of DHA, FIG. 2): dose-dependent
Increase in synthesis of phospholipids relative to cells administered choline alone (Rat hippocampal cells): more than 2 fold
Brain phospholipid levels ([1]; 3 weeks, Table 6): increased
Increase in levels of total phospholipids over control group ([1]; 4 weeks, gerbil brain): 12%
Total PtdCho ([1]; Table 5 part A): 185 ± 12 nmol/mg prt
Total PtdEtn ([1]; Table 5 part A): 78 ± 5 nmol/mg prt
Total PtdSer ([1]; Table 5 part A): 39 ± 3 nmol/mg prt
Total Ptdins ([1]; Table 5 part A): 32 ± 2 nmol/mg prt
